Laboratory results taken from patent publication US11111264B2, “Morphic forms of 4-amino-7-(3,4-dihydroxy-5-(hydroxymethyl)tetrahydrofuran-2-yl)-2-methyl-7H-pyrrolo[2,3-d]pyrimidine-5-carboxamide and uses thereof” (Chimerix, Inc., priority 2017, dated 2021).

How the values were obtained:
Format in all cases: physicochemical
[1] = Suspension equilibration of Compound 1, Form A in organic solvents
Experimental: Compound 1, Form A was stirred in methanol at room temperature for six days. […] At least 90% of Form A was still present.
Additionally, Compound 1, Form A was stirred in acetonitrile at a temperature ranging between 52° C. and 75° C. for five days.

[2] = Dynamic vapor sorption (DVS); conditions: 25° C.; for crystal form after DVS (PXRD): 50% to 0% to 95% to 50% relative humidity; for hygroscopicity (from DVS): mass as a function of relative humidity
Description: FIG. 20A is a DVS diagram of a sample of Compound 1, Form A as a function of time and the applied change in relative humidity. Line A represents the relative weight of the sample at each relative humidity. Line B represents the applied relative humidity (i.e., the applied measurement program). FIG. 20B is a DVS diagram of a sample of Compound 1, Form A as a function of the applied relative humidity. FIG. 20A and FIG. 20B were obtained using a Sorptions Prufsystem ProUmid system using a scan rate of 5% relative humidity per hour at a temperature of 25° C.
DVS measurements were performed with an SPS11-100n “Sorptions Prufsystem” of Projekt Messtechnik”, D-89077 Ulm (Germany). About 20 to 100 mg of sample were put into an aluminum sample pan. Humidity change rates of 5% per hour were used. The applied measurement program is visualized in the figures.

[3] = Thermodynamic stability: stirring a mixture of Forms A-G in solvent/water, PXRD; conditions: for PXRD after stirring mixture of Forms A, B, C, D, E, F and G: four days at room temperature
Description: A mixture of Compound 1, Forms A, B, C, D, E, F and G was stirred in DMF/water 1:1 v/v (water activity about 0.79).
A mixture of Compound 1, Forms A, B, C, D, E, F and G was stirred in methanol/water 95:5 v/v (water activity about 0.18).

Row | Compound | resulting crystalline material (PXRD) ([1]; stirred in acetonitrile between 52° C. and 75° C. for five days) | Form A still present (PXRD) ([1]; stirred in methanol at room temperature for six days) | desorption of water (DVS) ([2]; 0% R.H., 5% relative humidity per hour) | crystal form after DVS (PXRD) [2] | hygroscopicity (from DVS) [2] | PXRD after stirring mixture of Forms A, B, C, D, E, F and G ([3]; DMF/water 1:1 v/v (water activity about 0.79)) | relative thermodynamic stability among the seven morphic forms ([3]; conclusion from both slurry experiments) | PXRD after stirring mixture of Forms A, B, C, D, E, F and G ([3]; methanol/water 95:5 v/v (water activity about 0.18))
1 | Cc1nc(N)c2c(C(N)=O)cn([C@@H]3O[C@H](CO)[C@@H](O)[C@H]3O)c2n1 [Form A, 4-amino-7-((2R,3R,4S,5R)-3,4-dihydroxy-5-(hydroxymethyl)tetrahydrofuran-2-yl)-2-methyl-7H-pyrrolo[2,3-d]pyrimidine-5-carboxamide] | PXRD pattern similar to Compound 1, Form D | At least 90% | ≤ 0.1 % m/m | same pattern as the sample before DVS | non-hygroscopic | only the peaks of crystal form A | most thermodynamically stable | only the peaks of crystal form A
2 | Cc1nc(N)c2c(C(N)=O)cn([C@@H]3O[C@H](CO)[C@@H](O)[C@H]3O)c2n1 [Form B, 4-amino-7-((2R,3R,4S,5R)-3,4-dihydroxy-5-(hydroxymethyl)tetrahydrofuran-2-yl)-2-methyl-7H-pyrrolo[2,3-d]pyrimidine-5-carboxamide] | – | – | – | transform in to Form A | hygroscopic | – | – | –
3 | Cc1nc(N)c2c(C(N)=O)cn([C@@H]3O[C@H](CO)[C@@H](O)[C@H]3O)c2n1 [Form D, 4-amino-7-((2R,3R,4S,5R)-3,4-dihydroxy-5-(hydroxymethyl)tetrahydrofuran-2-yl)-2-methyl-7H-pyrrolo[2,3-d]pyrimidine-5-carboxamide] | – | – | – | remained as Form D | hygroscopic | – | – | –
4 | Cc1nc(N)c2c(C(N)=O)cn([C@@H]3O[C@H](CO)[C@@H](O)[C@H]3O)c2n1 [Form E, 4-amino-7-((2R,3R,4S,5R)-3,4-dihydroxy-5-(hydroxymethyl)tetrahydrofuran-2-yl)-2-methyl-7H-pyrrolo[2,3-d]pyrimidine-5-carboxamide] | – | – | – | transformed into Form A | hygroscopic | – | – | –
